Experimental data reported in PubChem BioAssay AID330 (DTP/NCI, 2004).
Several values for one entry are separate records, joined by “and”; a condition that tells them apart may be missing. Equal values may be shown once. Toxic doses and inconclusive results are not listed.

Tested on: P388 leukemia ip, CD2F1 mice, survival T/C
Test: NCI In Vivo Anticancer Drug Screen. Data for tumor model P388 Leukemia (intraperitoneal) in CD2F1 (CDF1) mice
Conditions: endpoint: median survival time, higher = longer survival
Procedure, shortened: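 Mice carrying the transplanted tumor received test compound or vehicle. Survival was recorded in each group, and the value is the treated-group measurement divided by that of the vehicle-treated control group.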

[1] = dose: 60.0 mg/kg/injection, schedule: Q01DX005 (ip), vehicle: Klucel (hydroxypropylcellulose) (HPC)
[2] = dose: 120.0 mg/kg/injection, schedule: Q01DX005 (ip), vehicle: Klucel (hydroxypropylcellulose) (HPC)
[3] = dose: 100.0 mg/kg/injection, schedule: Q04DX003 (ip), vehicle: saline with Tween-80
[4] = dose: 200.0 mg/kg/injection, schedule: Q04DX003 (ip), vehicle: saline with Tween-80
[5] = dose: 50.0 mg/kg/injection, schedule: Q01DX009 (ip), vehicle: saline
[6] = dose: 100.0 mg/kg/injection, schedule: Q01DX009 (ip), vehicle: saline
[7] = dose: 100.0 mg/kg/injection, schedule: Q04DX003 (ip), vehicle: Klucel (hydroxypropylcellulose) (HPC)
[8] = dose: 200.0 mg/kg/injection, schedule: Q04DX003 (ip), vehicle: Klucel (hydroxypropylcellulose) (HPC)
[9] = dose: 60.0 mg/kg/injection, schedule: Q01DX005 (ip), vehicle: saline with Tween-80
[10] = dose: 120.0 mg/kg/injection, schedule: Q01DX005 (ip), vehicle: saline with Tween-80
[11] = dose: 240.0 mg/kg/injection, schedule: Q01DX005 (ip), vehicle: saline with Tween-80
[12] = dose: 100.0 mg/kg/injection, schedule: Q04DX003 (ip), vehicle: saline
[13] = dose: 200.0 mg/kg/injection, schedule: Q04DX003 (ip), vehicle: saline
[14] = dose: 50.0 mg/kg/injection, schedule: Q01DX009 (ip), vehicle: saline with Tween-80
[15] = dose: 100.0 mg/kg/injection, schedule: Q01DX009 (ip), vehicle: saline with Tween-80
[16] = dose: 200.0 mg/kg/injection, schedule: Q01DX009 (ip), vehicle: saline with Tween-80
[17] = dose: 200.0 mg/kg/injection, schedule: Q01DX009 (ip), vehicle: saline
[18] = dose: 50.0 mg/kg/injection, schedule: Q01DX005 (ip), vehicle: Klucel (hydroxypropylcellulose) (HPC)
[19] = dose: 100.0 mg/kg/injection, schedule: Q01DX005 (ip), vehicle: Klucel (hydroxypropylcellulose) (HPC)
[20] = dose: 200.0 mg/kg/injection, schedule: Q01DX005 (ip), vehicle: Klucel (hydroxypropylcellulose) (HPC)
[21] = dose: 50.0 mg/kg/injection, schedule: Q01DX005 (ip), vehicle: saline with Tween-80
[22] = dose: 100.0 mg/kg/injection, schedule: Q01DX005 (ip), vehicle: saline with Tween-80
[23] = dose: 200.0 mg/kg/injection, schedule: Q01DX005 (ip), vehicle: saline with Tween-80

In the case of `N#C/C=C1\C=CC(O)C(O)C1OC1OC(CO)C(O)C(O)C1O` (configuration not stated), the T/C (dose: 6.0 mg/kg/injection, schedule: Q01DX009 (ip), vehicle: saline) is reported as 103 % of control, the T/C (dose: 12.0 mg/kg/injection, schedule: Q01DX009 (ip), vehicle: saline) is reported as 103 % of control and the T/C (dose: 24.0 mg/kg/injection, schedule: Q01DX009 (ip), vehicle: saline) is reported as 100 % of control. For the same compound, the T/C (dose: 48.0 mg/kg/injection, schedule: Q01DX009 (ip), vehicle: saline) was 105 % of control.
In the case of `CCC(c1ccc(OC)cc1)C(NC(=S)Nc1ccc(C)cc1)c1ccc(OC)cc1` (configuration not stated), the T/C (dose: 100.0 mg/kg/injection, schedule: Q01DX001 (ip), vehicle: saline with Tween-80) is reported as 88 % of control, the T/C (dose: 200.0 mg/kg/injection, schedule: Q01DX001 (ip), vehicle: saline with Tween-80) is reported as 88 % of control and the T/C (dose: 400.0 mg/kg/injection, schedule: Q01DX001 (ip), vehicle: saline with Tween-80) is reported as 90 % of control.
`Cc1cc2c(cc1C)NC1=C(N2)OC(c2ccccc2C)C1=O` (configuration not stated) was tested, and the T/C [1] was 96 % of control and the T/C [2] was 106 % of control.
With `O=C(O)CCC(=O)c1ccc(Br)cc1` the T/C [3] was 109 % of control, the T/C [4] was 104 % of control and the T/C (dose: 400.0 mg/kg/injection, schedule: Q04DX003 (ip), vehicle: saline with Tween-80) was 109 % of control.
`COc1ccc(/C=C/c2ccnnc2)c(OC)c1OC` was tested, and the T/C (dose: 25.0 mg/kg/injection, schedule: Q01DX009 (ip), vehicle: saline) was 102 % of control, the T/C [5] was 102 % of control and the T/C [6] was 105 % of control.
In the case of `CCOC(=O)CCCCCCNC(=S)N1c2c(nc(N)[nH]c2=O)NCC1CNc1ccc(C(=O)NC(CCC(=O)O)C(=O)O)cc1` (configuration not stated), the T/C (dose: 50.0 mg/kg/injection, schedule: Q01DX001 (ip), vehicle: sodium bicarbonate) is reported as 100 % of control, the T/C (dose: 100.0 mg/kg/injection, schedule: Q01DX001 (ip), vehicle: sodium bicarbonate) is reported as 100 % of control and the T/C (dose: 200.0 mg/kg/injection, schedule: Q01DX001 (ip), vehicle: sodium bicarbonate) is reported as 98 % of control.
With `COc1ccc(CC2(C(=O)O)NCCS2)cc1OC` (configuration not stated) the T/C [7] was 101 % of control and the T/C [8] was 98 % of control.
`CN1CCC/C1=C/C(=O)c1cccc([N+](=O)[O-])c1` was tested, and the T/C [7] was 108 % of control and the T/C [8] was 106 % of control.
`N#CC1=NOC(C(N)C(=O)O)C1` (configuration not stated) was tested, and the T/C (dose: 50.0 mg/kg/injection, schedule: Q04DX002 (ip), vehicle: saline) was 103 % of control, the T/C (dose: 100.0 mg/kg/injection, schedule: Q04DX002 (ip), vehicle: saline) was 100 % of control and the T/C (dose: 200.0 mg/kg/injection, schedule: Q04DX002 (ip), vehicle: saline) was 98 % of control.
For `CCOC(=O)/C(C#N)=C(\C)c1ccc(O)c(OC)c1`, the T/C [9] was 100 % of control, the T/C [10] was 101 % of control and the T/C [11] was 95 % of control.
For `COc1ccccc1C1C2CCCC(C2=O)C(c2ccccc2OC)N1C` (configuration not stated), the T/C [12] was 98 % of control, the T/C [13] was 99 % of control and the T/C (dose: 400.0 mg/kg/injection, schedule: Q04DX003 (ip), vehicle: saline) was 99 % of control.
`CC1(C)SC(=O)C(=O)S1` was tested, and the T/C [12] was 103 % of control and the T/C [13] was 93 % of control.
In the case of `CCCCN1C(=O)/C(=C/c2ccc(OC)c(OC)c2OC)SC1=S`, the T/C [14] is reported as 93 % of control, the T/C [15] is reported as 92 % of control and the T/C [16] is reported as 94 % of control.
In the case of `Cc1ccc(S(=O)(=O)N/N=C/c2c(-c3ccccc3)nc3n2CCS3)cc1`, the T/C (dose: 100.0 mg/kg/injection, schedule: Q01DX001 (ip), vehicle: Klucel (hydroxypropylcellulose) (HPC)) is reported as 99 % of control, the T/C (dose: 200.0 mg/kg/injection, schedule: Q01DX001 (ip), vehicle: Klucel (hydroxypropylcellulose) (HPC)) is reported as 93 % of control and the T/C (dose: 400.0 mg/kg/injection, schedule: Q01DX001 (ip), vehicle: Klucel (hydroxypropylcellulose) (HPC)) is reported as 94 % of control.
`C[Si](C)(C)c1cc[c]([Sn]([CH3])([CH3])[CH3])cc1` was tested, and the T/C [5] was 105 % of control, the T/C [6] was 101 % of control and the T/C [17] was 93 % of control.
`N#CCCNCCC[Si]12OCCN(CCO1)CCO2` was tested, and the T/C [18] was 97 % of control, the T/C [19] was 100 % of control and the T/C [20] was 101 % of control and 103 % of control.
In the case of `COC1C(C2CC(=O)NC(=O)C2)OC2OC(C)(C)OC21` (configuration not stated), the T/C [21] is reported as 104 % of control, the T/C [22] is reported as 107 % of control and the T/C [23] is reported as 104 % of control.
For `CCCCCCCCCCCCCCCCCC(=O)NN`, the T/C [3] was 94 % of control and the T/C [4] was 87 % of control.
`O=C(Nc1ccc(C(=O)O)c(O)c1)Nc1ccccc1C(F)(F)F` was tested, and the T/C [9] was 103 % of control, the T/C [10] was 90 % of control and the T/C [11] was 103 % of control.
`N#CC(=N)C(C#N)=Nc1c(O)[nH]c2ccc(Br)cc12` was tested, and the T/C [5] was 100 % of control, the T/C [6] was 94 % of control and the T/C [17] was 91 % of control.
`O=CC(=C\c1ccco1)/C(C=O)=C\c1ccco1` was tested, and the T/C [21] was 97 % of control and the T/C [22] was 112 % of control.
In the case of `CN1C2CCC1CC(OC(=O)/C=C/C(=O)OC1CC3CCC(C1)N3C)C2` (configuration not stated), the T/C (dose: 60.0 mg/kg/injection, schedule: Q01DX005 (ip), vehicle: suspension in saline) is reported as 91 % of control and the T/C (dose: 120.0 mg/kg/injection, schedule: Q01DX005 (ip), vehicle: suspension in saline) is reported as 91 % of control.
`COC1C(OC(N)=O)C(O)C(Oc2ccc3c(O)c(NC(=O)c4ccc(O)c(CC=C(C)C)c4)c(=O)oc3c2C)OC1(C)C` (configuration not stated) was tested, and the T/C (dose: 25.0 mg/kg/injection, schedule: Q01DX009 (ip), vehicle: Klucel (hydroxypropylcellulose) (HPC)) was 100 % of control, the T/C [18] was 109 % of control and the T/C (dose: 50.0 mg/kg/injection, schedule: Q01DX009 (ip), vehicle: Klucel (hydroxypropylcellulose) (HPC)) was 95 % of control. For the same compound, the T/C [19] was 106 % of control, the T/C (dose: 100.0 mg/kg/injection, schedule: Q01DX009 (ip), vehicle: Klucel (hydroxypropylcellulose) (HPC)) was 100 % of control and the T/C [20] was 109 % of control. The T/C (dose: 200.0 mg/kg/injection, schedule: Q01DX009 (ip), vehicle: Klucel (hydroxypropylcellulose) (HPC)) was 103 % of control.
For `Cc1c(CCNC=O)cc(C)c2c3c(oc12)CCCC3`, the T/C [14] was 91 % of control, the T/C [15] was 91 % of control and the T/C [16] was 94 % of control. The T/C (dose: 400.0 mg/kg/injection, schedule: Q01DX009 (ip), vehicle: saline with Tween-80) was 91 % of control.
For `COc1nc(N)c(NC(C)=O)c(=O)n1C`, the T/C (dose: 60.0 mg/kg/injection, schedule: Q01DX005 (ip), vehicle: saline) was 96 % of control, the T/C (dose: 120.0 mg/kg/injection, schedule: Q01DX005 (ip), vehicle: saline) was 96 % of control and the T/C (dose: 240.0 mg/kg/injection, schedule: Q01DX005 (ip), vehicle: saline) was 93 % of control.
For `CCOc1c(N=Nc2ccc(Cl)cc2)c(C)nn1C(N)=S`, the T/C [1] was 112 % of control, the T/C [2] was 112 % of control and the T/C (dose: 240.0 mg/kg/injection, schedule: Q01DX005 (ip), vehicle: Klucel (hydroxypropylcellulose) (HPC)) was 112 % of control.
For `COc1cc(C)c(O)c(C/C=C(\C)CC2=C[C@@]3(C)CCC[C@@]3(C)[C@]3(C=CC(C)(C)O3)O2)c1`, the T/C (dose: 10.0 mg/kg/injection, schedule: Q01DX005 (ip), vehicle: saline with Tween-80) was 94 % of control, the T/C (dose: 20.0 mg/kg/injection, schedule: Q01DX005 (ip), vehicle: saline with Tween-80) was 99 % of control and the T/C (dose: 40.0 mg/kg/injection, schedule: Q01DX005 (ip), vehicle: saline with Tween-80) was 99 % of control.
In the case of `O=C1CSC(c2ccc(Cl)c(Cl)c2)N1c1nncs1` (configuration not stated), the T/C [21] is reported as 103 % of control, the T/C [22] is reported as 93 % of control and the T/C [23] is reported as 99 % of control.
In the case of `O=C(O)COc1c2occc2cc2ccc(=O)oc12`, the T/C [9] is reported as 97 % of control, the T/C [10] is reported as 96 % of control and the T/C [11] is reported as 100 % of control.
`CC[As](CC)SC1CC(OC(=O)c2ccccc2)C(OC(=O)c2ccccc2)C(COC(=O)c2ccccc2)O1` (configuration not stated) was tested, and the T/C [14] was 100 % of control and the T/C [15] was 105 % of control.
With `CC1(C)CN(Cc2ccccc2)CCOC1N1CCOCC1` (configuration not stated) the T/C [21] was 93 % of control, the T/C [22] was 101 % of control and the T/C [23] was 115 % of control.
With `COc1cc(C(=O)NN=C2c3ccccc3-c3ccccc32)cc(OC)c1OC` the T/C [14] was 93 % of control, the T/C [15] was 88 % of control and the T/C [16] was 87 % of control.
With `COC(=O)CC1C=CC(OC)[C@@]2(C)C(=O)C(OC)=CC(=O)[C@@H]12` (some centres not stated) the T/C [9] was 101 % of control, the T/C [10] was 105 % of control and the T/C [11] was 91 % of control.
